Measurements from patent US7235267B1, “Brain cell or nerve cell-protecting agents comprising medicinal ginseng” (priority 1999, dated 2007).

Tests used:
[1] = tested on: SH-SP rats with MCA permanent occlusion; assay: TTC staining of cerebral infarct lesion 24 hours after MCA permanent occlusion; assay type: in vivo, rat
[2] = tested on: Wistar rats with spinal cord injury; assay: Spinal cord injury model (20 g compression on lower thoracic cord for 20 minutes); assay type: in vivo, rat; settings: for paralysis or paraplegia of both lower limbs: Solu-Medrol intravenous 30 mg/kg on the same schedule, 30 mg/kg
Text: The present inventors have investigated the effects of repetitive or continuous intravenous administration of ginsenoside Rb1 using rats with spinal cord injury and the effects were compared with those of repetitive or continuous intravenous administration of a crude saponin fraction of medicinal ginseng. If pressure is loaded on certain spinal segments such as the lower thoracic cord, not only nerve cells (neurons) in the gray matter of the same region but also fiber tracts or pathways in the white matter of the same region are damaged. The damages to the fiber tracts or pathways of the white matter are further developed to the distal portions (caudal portions) as well as causing the secondary degeneration of the origins of the fiber tract or pathways, namely the upper nerve cell bodies (i.e. origins) which project fibers (nerve processes) to the fiber tracts or pathways. As a result, the damages to the fiber tracts or pathways of the white matter in the lower thoracic cord, which received compression loading, induce the secondary degeneration of the origins (nerve cell bodies) sending fibers (also termed nerve processes or axons) to the fiber tracts or pathways as well as the secondary degeneration of fiber tracts located distal to the lower thoracic cord (i.e. lumbar cord and sacral cord) to cause paraplegia of both limbs. Further, since the innervation from the brain regions proximal to the lumbar cord and sacral cord is cut off due to damage to the lower thoracic cord, the secondary degeneration of nerve cells in the gray matters of the lumbar cord and sacral cord is further induced, as a result, paraplegia of the limbs can not be recovered. For that model of the spinal cord injury, the present inventors have used male Wistar rats (body weight about 300 g) loaded with 20 g of compression on the lower thoracic cord for 20 minutes.
Under inhalation anesthesia by a mixture of nitrous oxide and halothane, the rats were loaded with 20 g of compression on the lower thoracic cord for 20 minutes. After more than 30 minutes passed, ginsenoside Rb1 dissolved in physiological saline was injected once into the left femoral vein (12 μg or 60 μg), thereafter continuous or repetitive intravenous administration of ginsenoside Rb1 was performed for 7 days by using an Alza osmotic minipump (12 μg/day or 60 μ/day). Control animals and sham-operated animals were administered with the same amount of physiological saline (vehicle) alone. The open field locomotor scores [Basso, Bettie and Bresnakan (BBB) scores] were measured in each animal before loading spinal cord injury, on the day of spinal cord injury and from 1st day to 7th day after the spinal cord injury for use as an index of motor functions (Basso D. M. et al., J. Neurotrauma, 13, 343-359, 1996). BBB scores of the sham-operated rats (normal rats) were 20-21.
Under inhalation anesthesia by a mixture of nitrous oxide and halothane, the rats were loaded with 20 g of compression on the lower thoracic cord for 20 minutes. More than 30 minutes later, the crude saponin fraction dissolved in physiological saline was infused once into the left femoral vein (870 μg), thereafter continuous intravenous administration of the crude saponin fraction was performed for 7 days by using an Alza osmotic minipump (870 μg/day). Control animals with spinal cord injuries were administered with the same amount of physiological saline (vehicle) alone. […] These figures are photographs in place of drawings.
Under inhalation anesthesia by a mixture of nitrous oxide and halothane, wistar rats (body weight about 300 g) were loaded with 20 g of compression on the lower thoracic cord for 20 minutes. After they were awakened from anesthesia, the rats with paraplegia in both hindlimbs were allowed to stay for 1 hour and 40 minutes in the cage. […]

CC(C)CCC[C@](C)(O[C@@H]1O[C@H](CO[C@@H]2O[C@H](CO)[C@@H](O)[C@H](O)[C@H]2O)[C@@H](O)[C@H](O)[C@H]1O)[C@H]1CC[C@]2(C)[C@@H]1[C@H](O)C[C@@H]1[C@@]3(C)CC[C@H](O[C@@H]4O[C@H](CO)[C@@H](O)[C@H](O)[C@H]4O[C@@H]4O[C@H](CO)[C@@H](O)[C@H](O)[C@H]4O)C(C)(C)[C@@H]3CC[C@]12C [dihydroginsenoside Rb1]
cerebral infarct lesion (TTC staining) ([1]; dihydroginsenoside Rb1 intravenous 6 μg/day for 24 hours after MCA permanent occlusion): markedly reduced | volume of cerebral infarct lesion relative to non-administered group ([1]; intravenous low doses): about ¼

C[C@H]1C[C@@H]2[C@H]([C@@H](O)C[C@@]3(C)[C@H]2CC[C@]3(O)C(=O)COC(=O)CCC(=O)[O-])[C@@]2(C)C=CC(=O)C=C12.[Na+] [reference compound]
experimental animals died within 7 days after spinal cord injuries ([2]; Solu-Medrol 30 mg/kg, 4 out of 10 rats): about 40% | paralysis or paraplegia of both lower limbs [2]: no significant ameliorating effects | paralysis or paraplegia of both lower limbs ([2]; listed as Solu-Medol): could not ameliorate | healing of the operative dorsal wounds / ill effects ([2]; rat, in vivo): obviously delayed
